Calls of active or inactive are those of the source.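 The calls were made as follows: active = IC50 for loss of cell viability, measured as ATP drop, at or below 10 µM; inactive = the rest.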
Each compound was assayed on Jurkat viability, CellTiter-Glo ATP luminescence (assay: viability loss in human Jurkat cells – cell-based, luminescence, powder samples, cytotoxicity control for TAAR1 agonist/antagonist project, late-stage follow-up (AID 1053179)).
With N#Cc1c(C(F)(F)F)cc(-c2ccc(Cl)cc2)nc1SCC(=O)Nc1ncccn1 the IC50 was 53 µM (inactive). In the case of N#Cc1c(C(F)(F)F)cc(-c2ccc(Cl)cc2)nc1SCC(=O)N1CCCC1, the IC50 is reported as > 83.3 µM (inactive). For CC(CN1CCCC1Cc1ccccc1)C(=O)c1ccc2c(c1)OCCO2 (configuration not stated), the IC50 was 3.66 µM. With Cc1ccc(C(=O)CCN2CCC(c3ccccc3)C2)cc1 (configuration not stated) the IC50 was 5.06 µM. Work on O=C(CCN1CCC(c2ccccc2)C1)c1ccccc1 (configuration not stated) yielded an IC50 of 3.95 µM. COc1cc(C(=O)CCN2CCC(c3ccccc3)C2)cc(OC)c1OC (configuration not stated) gave an IC50 of 7.06 µM. In the case of N#Cc1c(C(F)(F)F)cc(-c2ccc(Cl)cc2)nc1SCC(=O)N1CCCCCC1, the IC50 is reported as > 83.3 µM (inactive).

From PubChem BioAssay AID1053179 (The Scripps Research Institute Molecular Screening Center, 2014)
